In ChEMBL document CHEMBL1129191, “Syntheses of trans-3-substituted-CCG-IV analogs and their characterization to ionotropic glutamate receptors” (Bioorg Med Chem Lett, 1996):

Experiments:
[1] = molecular target: Glutamate NMDA receptor; assay: Compound was evaluated for the inhibition of [3H]CGS-19,755 binding to NMDA receptor from rat brain synaptic membrane.
[2] = molecular target: Glutamate receptor ionotropic, AMPA (Rattus norvegicus, UniProt P19490+P19491+P19492+P19493)
Description: Compound was evaluated for the inhibition of [3H]AMPA binding to Ionotropic glutamate receptor AMPA from rat brain synaptic membrane.

Structure (SMILES) | IC50 [1] [µM] | IC50 [2] [µM]
C=C(C)[C@H]1CN[C@H](C(=O)O)[C@H]1CC(=O)O [KAINIC ACID] | > 100 | –
COC[C@H]1[C@H](C(=O)O)[C@@H]1[C@H](N)C(=O)O | 50 | 4
C=C[C@H]1[C@H](C(=O)O)[C@@H]1[C@H](N)C(=O)O | 1.2 | 4
CC[C@H]1[C@H](C(=O)O)[C@@H]1[C@H](N)C(=O)O | 2 | 2
CN[C@H](CC(=O)O)C(=O)O [N-METHYL-D-ASPARTIC ACID (NMDA)] | 5.5 | > 100
N[C@H](C(=O)O)[C@@H]1[C@@H](COCc2ccccc2)[C@@H]1C(=O)O | 21 | > 100
C=C1C[C@@H]([C@H](N)C(=O)O)[C@@H](C(=O)O)C1 | > 100 | 7.5
N[C@H](C(=O)O)[C@@H]1C[C@@H]1C(=O)O | 0.0052 | –
